Laboratory results: patent US20100081679A1, “DIAMINOPYRIMIDINES AS FUNGICIDES” (Bayer CropScience AG, priority 2007, published 2010)
Marks after values point to notes of the source that are not given here. Blank lines part the entries; values can stand above or below the molecule they belong to.

Assay: logP determination via retention times, calibrated with unbranched alkan-2-ones
Assay type: physicochemical
[1] = HPLC on reversed-phase C18, method *: 40° C., 0.1% aqueous formic acid and acetonitrile, linear gradient 10% to 95% acetonitrile
[2] = method *: HPLC reversed-phase C 18, temperature 40° C., mobile phase 0.1% aqueous formic acid and acetonitrile, linear gradient 10% to 95% acetonitrile
[3] = HPLC on reversed-phase C18, method *: 40° C., mobile phase 0.1% aqueous formic acid and acetonitrile, linear gradient 10% to 95% acetonitrile
[4] = HPLC reversed-phase C 18, EEC Directive 79/831 Annex V.A8, method *: 40° C., 0.1% aqueous formic acid and acetonitrile, linear gradient 10% to 95% acetonitrile
[5] = method **: HPLC reversed-phase C 18, 43° C., 0.1% aqueous phosphoric acid and acetonitrile, linear gradient 10% to 95% acetonitrile
[6] = HPLC on reversed-phase C 18, EEC Directive 79/831 Annex V.A8, method *: 40° C., 0.1% aqueous formic acid and acetonitrile, linear gradient 10% to 95% acetonitrile
[7] = method *: HPLC reversed-phase C18, 40° C., 0.1% aqueous formic acid and acetonitrile, linear gradient 10% to 95% acetonitrile
[8] = method *: HPLC, reversed-phase C 18, 40° C., mobile phase 0.1% aqueous formic acid and acetonitrile, linear gradient from 10% to 95% acetonitrile
[9] = HPLC on reversed-phase C18 column (EEC Directive 79/831 Annex V.A8), method *: 40° C., 0.1% aqueous formic acid and acetonitrile, linear gradient 10% to 95% acetonitrile

- logP [1]: 1.07*
SMILES: Brc1cnc(Nc2ccc(OCCN3CCCCC3)cc2)nc1NC1CC1 [compound 117]

- logP [1]: 1.23*
SMILES: O=C(O)Cc1cccc(Nc2ncc(Cl)c(NC3CC3)n2)c1 [compound 768]

- logP [1]: 2.78*
SMILES: COCc1cccc(Nc2ncc(C(F)(F)F)c(NC3CC3)n2)c1 [compound 721]

- logP [1]: 3.07*
SMILES: FC(F)(F)Oc1ccccc1Nc1ncc(Cl)c(NC2CC2)n1 [compound 883]

- logP [2]: 1.58*
SMILES: O=C1NC(=O)C(c2ccc(Nc3ncc(C(F)(F)F)c(NC4CC4)n3)cc2)N1 (centres unmarked) [compound 658]

- logP [1]: 1.83*
SMILES: Cc1ccc(C)c(Nc2ncc(Cl)c(NC3CC3)n2)c1 [compound 935]

- logP [3]: 3.66*
SMILES: Clc1ccccc1C1(Nc2nc(Nc3ccccc3)ncc2Cl)CC1 [compound 318]

- logP (HPLC on reversed-phase C18, method **: 43° C., mobile phase 0.1% aqueous phosphoric acid and acetonitrile, linear gradient 10% to 95% acetonitrile): 0.48**
- logP [3]: 0.45*;
SMILES: Nc1ccc(Nc2ncc(Cl)c(NC3CC3)n2)cc1 [compound 272]

- logP [1]: 1.68*
SMILES: Cc1cc(F)ccc1Nc1ncc(Cl)c(NC2CC2)n1 [compound 945]

- logP [2]: 1.92*
SMILES: CS(=O)(=O)c1ccc(Nc2ncc(C#N)c(NC3CC3)n2)cc1 [compound 605]

- logP [4]: 1.24*
SMILES: O=C1COCCN1c1cccc(Nc2ncc(Br)c(NC3CC3)n2)c1 [compound 789]

- logP [2]: 1.58*
SMILES: CN1CCN(c2cccc(Nc3ncc(Br)c(NC4CC4)n3)c2)C1=O [compound 570]

- logP [5]: 1.55**
SMILES: O=C(O)c1ccc(Nc2ncc(Cl)c(NC3CC3)n2)cc1 [Example 35]

- logP [1]: 1.44*
SMILES: CCNC(=O)c1cccc(Nc2ncc(Br)c(NC3CC3)n2)c1 [compound 702]

- logP [2]: 2.06*
SMILES: COC(=O)Nc1cccc(Nc2ncc(C#N)c(NC3CC3)n2)c1 [compound 612]

- logP [1]: 3.89*
SMILES: CC(Cl)c1cccc(Nc2ncc(C(F)(F)F)c(NCC3CC3)n2)c1 (centres unmarked) [compound 703]

- logP [6]: 2.24*
SMILES: C#Cc1cccc(Nc2ncc(Cl)c(NC3CC3)n2)c1 [compound 502]

- logP [1]: 1.46*
SMILES: Oc1ccc(Nc2ncc(Cl)c(NCC3CC3)n2)c(F)c1 [compound 694]

- logP [3]: 1.18*
SMILES: COc1cc(Nc2ncc(Cl)c(NC3CC3)n2)ccc1NC(C)=O [compound 280]

- logP [7]: 2.29*
SMILES: CSc1ccc(Nc2ncc(Br)c(NCC3CC3)n2)cc1 [compound 453]

- logP [1]: 3.03*
SMILES: Fc1cc(Cl)ccc1Nc1ncc(Cl)c(NC2CC2)n1 [compound 947]

- logP [1]: 3.29*
SMILES: Clc1cnc(Nc2ccc(C3CCCCC3)cc2)nc1NC1CC1 [compound 952]

- logP [1]: 2.53*
SMILES: Fc1cccc(Nc2ncc(Cl)c(NC3CC3)n2)c1F [compound 946]

- logP [8]: 3.69*
SMILES: Clc1cnc(Nc2ccc(Sc3ccccc3)cc2)nc1NC1CC1 [compound 1013]

- logP (method **: HPLC reversed-phase C 18, temperature 43° C., mobile phase 0.1% aqueous phosphoric acid and acetonitrile, linear gradient 10% to 95% acetonitrile): 1.77**
- logP [2]: 1.78*;
SMILES: CC(=O)Nc1cccc(Nc2ncc(C(F)(F)F)c(NC3CC3)n2)c1 [compound 649]

- logP [7]: 1.73*
SMILES: COc1cc(Nc2ncc(Cl)c(NC3CC3)n2)cc(OC)c1OC [Example 4]

- logP [6]: 1.66*
SMILES: C=CC(=O)Nc1cccc(Nc2ncc(Br)c(NCC3CC3)n2)c1 [compound 482]

- logP [9]: 1.57*
SMILES: CC1COC(=O)N1c1cccc(Nc2ncc(Cl)c(NC3CC3)n2)c1 (centres unmarked) [compound 267]

- logP [7]: 1.91*
SMILES: COc1cc(Nc2ncc(Cl)c(NC3CC3)n2)cc(OC)c1 [Example 3]

- logP [6]: 1.53*
SMILES: COc1cc(Nc2ncc(Cl)c(NCC3CC3)n2)ccc1NC(C)=O [compound 503]

- logP [6]: 1.58*
SMILES: CC(=O)Cc1ccc(Nc2ncc(Br)c(NC3CC3)n2)cc1 [compound 565]

- logP [7]: 1.49*
SMILES: O=C1CCCN1c1ccc(Nc2ncc(Br)c(NC3CC3)n2)cc1 [Example 97]

- logP [4]: 1.88*
SMILES: O=C1COCCN1c1cccc(Nc2ncc(C(F)(F)F)c(NC3CC3)n2)c1 [compound 790]

- logP [5]: 1.75**
SMILES: Cl.Clc1cnc(Nc2ccccc2)nc1NC1CC1 [Example 29]

- logP [5]: 1.72**
SMILES: Cc1cc(C)nc(NS(=O)(=O)c2ccc(Nc3ncc(Cl)c(NC4CC4)n3)cc2)n1 [compound 26]

- logP [3]: 2.01*
SMILES: CCOC(=O)C1(Nc2nc(Nc3cc(OC)c(OC)c(OC)c3)ncc2Cl)CC1 [compound 317]

- logP [1]: 2.86*
SMILES: O=C(c1ccc(Nc2ncc(C(F)(F)F)c(NC3CC3)n2)cc1)N1CCCCC1 [compound 725]

- logP [3]: 1.87*
SMILES: CCOc1ccc(Nc2ncc(Br)c(NC3CC3)n2)cc1 [compound 308]

- logP [7]: 2.77*
SMILES: N#Cc1cnc(Nc2ccccc2)nc1NCC1CC1 [compound 87]

- logP [2]: 1.85*
SMILES: COc1cc(Nc2ncc(C(F)(F)F)c(NC3CC3)n2)ccc1NC(C)=O [compound 639]

- logP [5]: 1.51**
SMILES: NS(=O)(=O)c1cccc(Nc2ncc(Cl)c(NCC3CC3)n2)c1 [Example 16]

- logP [2]: 3.42*
SMILES: Fc1cc(F)cc(Nc2ncc(Cl)c(NCC3CC3)n2)c1 [compound 603]

- logP [3]: 1.97*
SMILES: O=C(Nc1ccc(Nc2ncc(Br)c(NC3CC3)n2)cc1)C(F)(F)F [compound 350]

- logP [6]: 1.19*
SMILES: O=C1CCc2cc(Nc3ncc(Cl)c(NCC4CC4)n3)ccc2N1 [compound 517]

- logP [1]: 0.88*
SMILES: Clc1cnc(Nc2cccc(C3CCNCC3)c2)nc1NC1CC1 [compound 727]

- logP [1]: 3.72*
SMILES: CC(C)Sc1ccccc1Nc1ncc(Cl)c(NC2CC2)n1 [compound 885]

- logP [2]: 1.61*
SMILES: O=S(=O)(c1cccc(Nc2ncc(F)c(NC3CC3)n2)c1)N1CCCCC1 [compound 588]

- logP [7]: 1.58*
SMILES: CNC(=O)c1ccc(Nc2ncc(Br)c(NCC3CC3)n2)cc1 [compound 424]

- logP [2]: 1.58*
SMILES: CN1CCN(c2cccc(Nc3ncc(Cl)c(NCC4CC4)n3)c2)C1=O [compound 618]

- logP [3]: 2.66*
SMILES: FC(F)Oc1cccc(Nc2ncc(Br)c(NC3CC3)n2)c1 [compound 332]

- logP [8]: 3.55*
SMILES: CCCCCc1ccc(Nc2ncc(Cl)c(NC3CC3)n2)cc1 [compound 1048]

- logP [9]: 1.47*
SMILES: CS(=O)(=O)Nc1cccc(Nc2ncc(Cl)c(NC3CC3)n2)c1 [compound 242]

- logP [2]: 2.77*
SMILES: CC(C)(C)OC(=O)NCc1ccc(Nc2ncc(C#N)c(NC3CC3)n2)cc1 [compound 615]

- logP [1]: 1.35*
SMILES: Cc1cc(Nc2ncc(Br)c(NC3CC3)n2)ccc1O [compound 116]

- logP [8]: 3.25*
SMILES: CCCS(=O)(=O)c1cccc(Nc2ncc(C(F)(F)F)c(NCC3CC3)n2)c1 [compound 1068]

- logP (HPLC reversed-phase C 18, EEC Directive 79/831 Annex V.A8, method **: 43° C., 0.1% aqueous phosphoric acid and acetonitrile, linear gradient 10% to 95% acetonitrile): 1.31**
SMILES: Cc1nc(Nc2ccc(N3CCOC3=O)cc2)nc(NC2CC2)c1Cl [compound 840]

- logP [9]: 2.13*
SMILES: CN(C)C(=O)c1ccc(Nc2ncc(C(F)(F)F)c(NCC3CC3)n2)cc1 [compound 206]

- logP [8]: 2.09*
SMILES: Cc1cccc(Nc2ncc(Cl)c(NCC3CC3)n2)c1 [compound 1051]

- logP [5]: 2.9**
SMILES: O=[N+]([O-])c1ccc(Nc2ncc(Cl)c(NC3CC3)n2)cc1 [compound 438]

- logP [2]: 1.28*
SMILES: CNC(=O)Nc1cccc(Nc2ncc(F)c(NC3CC3)n2)c1 [compound 597]

- logP [5]: 2.23**
SMILES: CCOC1(Nc2nc(Nc3ccccc3)ncc2Cl)CC1.Cl [compound 38]

- logP [1]: 3.55*
SMILES: Clc1ccc(Nc2ncc(Cl)c(NC3CC3)n2)cc1Br [compound 942]

- logP [2]: 2.48*
SMILES: COc1cccc(Nc2ncc(C#N)c(NC3CC3)n2)c1 [compound 604]

- logP [6]: 1.61*
SMILES: CCC(=O)Nc1cccc(Nc2ncc(Cl)c(NCC3CC3)n2)c1 [compound 508]

- logP [2]: 1.23*
SMILES: O=C1OCCN1c1ccc(Nc2ncc(F)c(NC3CC3)n2)cc1 [compound 592]

- logP [7]: 1.39*
SMILES: CNC(=O)c1ccc(Nc2ncc(Br)c(NC3CC3)n2)cc1 [compound 382]

- logP [6]: 2.51*
SMILES: CN(C)S(=O)(=O)Oc1cccc(Nc2ncc(Br)c(NCC3CC3)n2)c1 [compound 485]

- logP [2]: 2.73*
SMILES: COc1cccc(Nc2ncc(C(F)(F)F)c(NC3CC3)n2)c1 [compound 640]

- logP [8]: 4.19*
SMILES: CCSC(C)c1cccc(Nc2ncc(C(F)(F)F)c(NC3CC3)n2)c1 (centres unmarked) [compound 987]

- logP [1]: 2.56*
SMILES: N#CCc1cccc(Nc2ncc(C(F)(F)F)c(NC3CC3)n2)c1 [compound 976]

- logP [5]: 1.45**
SMILES: Cl.Fc1cnc(Nc2ccccc2)nc1NC1CC1 [compound 41]

- logP [9]: 2.53*
SMILES: COc1cc(Nc2ncc(Cl)c(NC3CC3)n2)ccc1Cl [compound 256]

- logP [5]: 1.78**
SMILES: COc1cc(Nc2ncc(Cl)c(NCC3CC3)n2)cc(OC)c1OC [Example 12]

- logP [5]: 2.56**
SMILES: O=S(=O)(Nc1ccccc1)c1ccc(Nc2ncc(Cl)c(NC3CC3)n2)cc1 [compound 27]

- logP [6]: 1.66*
SMILES: CC(=O)N1CCc2ccc(Nc3ncc(Cl)c(NCC4CC4)n3)cc21 [compound 521]

- logP [1]: 1.69*
SMILES: CSc1ccc(Nc2ncc(Cl)c(NC3CC3)n2)cc1N [compound 664]

- logP [2]: 1.58*
SMILES: O=C(Nc1ccc(Nc2ncc(F)c(NC3CC3)n2)cc1)C(F)(F)F [compound 583]

- logP [3]: 2.8*
SMILES: CC(C)c1cccc(Nc2ncc(Br)c(NC3CC3)n2)c1 [compound 363]

- logP [7]: 1.45*
SMILES: O=C1CCCN1Cc1cccc(Nc2ncc(Cl)c(NC3CC3)n2)c1 [compound 433]

- logP [1]: 0.79*
SMILES: CN(C)Cc1cccc(Nc2ncc(Cl)c(NC3CC3)n2)c1 [compound 718]

- logP [4]: 2.56*
SMILES: Brc1cnc(Nc2ccccc2)nc1NC1CC1 [compound 836]
